Measurements as given in patent US4347177A, “Compounds and methods of making them” (Burroughs Wellcome Co., priority 1980, dated 1982).

Experiment: Pharmacokinetics of bupropion in plasma after oral administration to four normal male subjects (RIA using 3H bupropion)
Format: in vivo
Conditions: human plasma, oral 200 mg bupropion-HCl (two 100 mg tablets)
Method: Samples of six standard solutions of bupropion in blank plasma having concentrations of 0.39 to 50 ng/ml) are pipetted (0.1 ml each) in duplicate into 12×75 mm plastic tubes. Duplicate non-specific binding (no antibody) and maximum binding tubes (no unlabeled bupropion) receive 0.1 ml blank plasma. Spiked plasma controls at several concentrations of (e.g., 1.0, 10.0, and 100 ng/ml) and plasma samples for assay (diluted into the standard range with blank plasma if necessary) are assayed in duplicate. After being placed in an ice bath, all tubes receive (in order) 0.2 ml ^3 H bupropion (416 pg. containing approximately 10^4 cpm) and 0.7 ml anti-bupropion serum (raised to a ring-functionalized immunogen according to the present invention) (at pre-determined dilutions such that approximately 40% of the ^3 H bupropion added is bound), both in assay buffer (0.05 M phosphate-bufferedisotonic saline, containing 0.01 M EDTA and 0.1% gelatin, pH 7.0). […] The supernatants, containing antibody-bound ^3 H bupropion are carefully decanted into liquid scintillation cocktail for quantitation of ^3 H. After counts (minus average non-specific binding cpm) are expressed as percentages of average maximum binding cpm, bupropion concentrations in plasma samples and spiked controls are read from a standard curve (log concentration vs percent average maximum binding).
The procedure of Example X has been applied to a study of bupropion (supplied as Wellbatrin, produced by Burroughs Wellcome Co.) pharmacokinetics in plasma after oral administration of 200 mg bupropion-HCl (in two 100 mg tablets) to four normal male subjects. Venous blood samples were collected at various times following dosing, and concentrations in plasma samples determined as described. […]

Compound: CC(NC(C)(C)C)C(=O)c1cccc(Cl)c1 (racemic) [bupropion, (±)-2-tert-butylamino-3'-chloropropiophenone]
- Cmax (mean ± S.D., read-out: maximum plasma bupropion concentration): 217 ± 37 ng/mL
- Tmax (mean ± S.D., read-out: time to reach maximum concentration): 1.5 ± 0.4 h
- half-life (± S.D., read-out: mean elimination half-life (converted)): 2.9 ± 0.4 h
